Source: patent publication EP1137645B1, “ALPHA-METHYLBENZYL-CONTAINING THIOUREA INHIBITORS OF HERPES VIRUSES CONTAINING A […] GROUP” (Wyeth, priority 1998, dated 2000)
In brackets after ≈: the same amount, converted by molar mass. Where two headings read alike, the source gives them in different places.

Columns and labels:
VZV strain Ellen = assay: VZV antiviral (ELISA) assay; assay type: cell-based; conditions: Human alphaherpesvirus 3, HFF; for inhibition at 10 µg/mL: read-out: % inhibition 10 ug/ml VZV
How it was run: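 HFF cells infected with VZV Ellen at multiplicity below 0.1 overnight, then mixed infected/uninfected cells seeded with compound in DMEM/2% FBS and incubated three days at 37°C, 5% CO2.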

[1] = system: HCMV recombinant mutant virus whose genome contains the prokaryotic beta-glucuronidase gene; assay: microbe, parasite or virus in culture; assay type: cell-based, human cytomegalovirus; conditions: Human betaherpesvirus 5, Fibroblast, read-out: IC50 ug/ml HCMV, HCMV, human foreskin fibroblasts
How it was run: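 Human foreskin fibroblasts infected with HCMV recombinant carrying beta-glucuronidase under a viral promoter (e.g. RV145) in presence of compound. At 96 h post-infection, lysates assayed for beta-glucuronidase by colorimetric or fluorogenic substrate as replication readout; IC50 estimated from varying compound amounts.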

HSV- I = assay: HSV antiviral (ELISA) assay; assay type: cell-based; conditions: read-out: IC50 (ug/ml) HSV
Description: Vero cells (ATCC #CCL-81) are plated on 96-well tissue culture plates at 3.5x10^4 cells per 100µl tissue culture DMEM (Dulbecco's modified Eagle media) supplemented with 2% fetal bovine serum (FBS) in each well. After overnight incubation @ 37°C (in 5% CO2) and 30 minutes prior to infection with HSV- I (multiplicity of infection equal to 0.006), cells are either untreated, or treated with test compound (multiple concentrations) or reference standard drug control. After approximately 24 hours post-infection incubation @ 37°C (in 5% CO2), cells are fixed for ELISA assay. The primary antibody is murine anti-HSV glycoprotein D monoclonal primary antibody and the secondary antibody is goat anti-mouse IgG linked to β-galactosidase. Thus the extent of viral replication is determined by assessing β-galactosidase activity by quantifying the generation of the 4-methyl umbelliferone fluorescent cleavage product after addition of the methyl umbelliferyl-β-D-galactoside (Sigma #M1633) substrate on a microfluorimeter (365nm for excitation and 450nm for emission). Antiviral activity (IC50) of the test compound is determined by comparing the flourescence obtained in absence of compound to that obtained in the presence of compound.

[2] = read-out: IC50 (ug/ml) VZV, VZV strain Ellen, HFF cells, ELISA

Row | SMILES | inhibition at 10 µg/mL (VZV strain Ellen) | IC50 (VZV strain Ellen; read-out: IC50 (ug/ml) VZV) | IC50 [1] | IC50 (HSV- I; HSV- I, Vero cells, ELISA) | IC50 (VZV strain Ellen; [2]) | IC50 (HSV- I; Vero)
1 | COc1cc(OC)c(NC(=S)Nc2ccc(NC(=O)c3ccc4ccccc4c3)cc2)cc1Cl [Example 156, Naphthalene-2-carboxylic acid {4-[3-(5-chloro-2,4-dimethoxy-phenyl)-thioureido]-phenyl}-amide] | 17% | > 10 µg/mL | 10 µg/mL (≈ 20.3 µM) | 2 µg/mL (≈ 4.07 µM) |  | 
2 | COc1cc(OC)c(NC(=S)Nc2ccc(NC(=O)c3cccc4ccccc34)cc2)cc1Cl [Example 157, Naphthalene-1-carboxylic acid {4-[3-(5-chloro-2,4-dimethoxy-phenyl)-thioureido]-phenyl}-amide] | 32% | > 10 µg/mL | 8 µg/mL (≈ 16.3 µM) | 0.9 µg/mL (≈ 1.83 µM) |  | 
3 | CCOC(=O)Nc1cccc(C(=O)Nc2ccc(NC(=S)Nc3cc(Cl)c(OC)cc3OC)cc2)c1 [Example 180, (3-{4-[3-(5-Chloro-2,4-dimethoxy-phenyl)-thioureido]-phenylcarbamoyl}-phenyl)-carbamic acid ethyl ester] | 36% |  | 1.5 µg/mL (≈ 2.84 µM) |  | > 10 µg/mL | 1.3 µg/mL (≈ 2.46 µM)
4 | COc1cc(OC)c(NC(=S)Nc2ccc(NC(=O)c3ccccc3N)cc2)cc1Cl [Example 181, 2-Amino-N-{4-[3-(5-chloro-2,4-dimethoxy-phenyl)-thioureido]-phenyl}-benzamide] | 60% | > 10 µg/mL | > 10 µg/mL | 1.5 µg/mL (≈ 3.28 µM) |  | 
5 | COc1cc(OC)c(NC(=S)Nc2ccc(NC(=O)c3ccccc3-c3ccccc3)cc2)cc1Cl [Example 182, Biphenyl-2-carboxylic acid {4-[3-(5-chloro-2,4-dimethoxy-phenyl)-thioureido]-phenyl}-amide] | 32% |  | 10 µg/mL (≈ 19.3 µM) |  | > 10 µg/mL | 10 µg/mL (≈ 19.3 µM)
6 | COc1cc(OC)c(NC(=S)Nc2ccc(NC(=O)c3ccccc3C(=O)O)cc2)cc1Cl [Example 184, N-{4-[3-(5-Chloro-2,4-dimethoxy-phenyl)-thioureido]-phenyl}-phthalamic acid] |  |  | > 50 µg/mL |  | > 10 µg/mL | > 50 µg/mL
7 | COc1cc(OC)c(NC(=S)Nc2ccc(NC(=O)c3ccccc3CO)cc2)cc1Cl [Example 185, N-{4-[3-(5-Chloro-2,4-dimethoxy-phenyl)-thioureido]-phenyl}-2-hydroxy-methyl-benzamide] | 32% | > 10 µg/mL | 10 µg/mL (≈ 21.2 µM) | 3 µg/mL (≈ 6.36 µM) |  | 
8 | COc1cc(OC)c(NC(=S)Nc2ccc(NC(=O)c3cccc(F)c3F)cc2)cc1Cl [Example 186, N-{4-[3-(5-Chloro-2,4-dimethoxy-phenyl)-thioureido]-phenyl}-2,3-difluoro-benzamide] | 52% | > 10 µg/mL | > 10 µg/mL | 0.2 µg/mL (≈ 0.418 µM) |  | 
9 | COc1cc(OC)c(NC(=S)Nc2ccc(NC(=O)c3cc(F)ccc3F)cc2)cc1Cl [Example 187, N-{4-[3-(5-Chloro-2,4-dimethoxy-phenyl)-thioureido]-phenyl}-2,5-difluoro-benzamide] | 53% | > 10 µg/mL | > 10 µg/mL | 0.2 µg/mL (≈ 0.418 µM) |  | 
10 | COc1cc(OC)c(NC(=S)Nc2ccc(NC(=O)c3ccc(F)cc3F)cc2)cc1Cl [Example 188, N-{4-[3-(5-Chloro-2,4-dimethoxy-phenyl)-thioureido]-phenyl}-2,4-difluoro-benzamide] | 22% | > 10 µg/mL | > 10 µg/mL | 1.2 µg/mL (≈ 2.51 µM) |  | 
11 | COc1cc(OC)c(NC(=S)Nc2ccc(NC(=O)c3ccccc3NC(C)=O)cc2)cc1Cl [Example 189, 2-Acetylamino-N-{4-[3-(5-chloro-2,4-dimethoxy-phenyl)-thioureido]-phenyl}-benzamide] | 59% | > 10 µg/mL | > 10 µg/mL | 2.5 µg/mL (≈ 5.01 µM) |  | 
12 | COc1cc(OC)c(NC(=S)Nc2ccc(NC(=O)c3ccccc3NS(C)(=O)=O)cc2)cc1Cl [Example 191, N-{4-[3-(5-Chloro-2,4-dimethoxy-phenyl)-thioureido]-phenyl}-2-methane-sulfonylamino-benzamide] | 22% |  | > 10 µg/mL |  | > 10 µg/mL | 8 µg/mL (≈ 15 µM)
13 | COc1cc(OC)c(NC(=S)Nc2ccc(NC(=O)c3ccc(F)c(F)c3F)cc2)cc1Cl [Example 192, N-{4-[3-(5-Chloro-2,4-dimethoxy-phenyl)-thioureido]-phenyl}-2,3,4-trifluoro-benzamide] | 14% | > 10 µg/mL | > 10 µg/mL | 0.5 µg/mL (≈ 1.01 µM) |  | 
14 | COc1cc(OC)c(NC(=S)Nc2ccc(NC(=O)c3c(F)c(F)c(F)c(F)c3F)cc2)cc1Cl [Example 193, N-{4-[3-(5-Chloro-2,4-dimethoxy-phenyl)-thioureido]-phenyl}-2,3,4,5,6-pentafluoro-benzamide] | 106% | 3.8 µg/mL (≈ 7.14 µM) | > 10 µg/mL | 1.5 µg/mL (≈ 2.82 µM) |  | 
15 | COc1cc(OC)c(NC(=S)Nc2ccc(NC(=O)c3ccccc3SC)cc2)cc1Cl [Example 194, N-{4-[3-(5-Chloro-2,4-dimethoxy-phenyl)-thioureido]-phenyl}-2-methyl-sulfanyl-benzamide] | 45% | > 10 µg/mL | > 10 µg/mL | 1.5 µg/mL (≈ 3.07 µM) |  | 
16 | COC(=O)c1cccc(C(=O)Nc2ccc(NC(=S)Nc3cc(Cl)c(OC)cc3OC)cc2)c1 [Example 208, N-{4-[3-(5-Chloro-2,4-dimethoxy-phenyl)-thioureido]-phenyl}-isophthalamic acid methyl ester] | 25% | > 10 µg/mL | > 10 µg/mL | 10 µg/mL (≈ 20 µM) |  | 
17 | COc1cc(OC)c(NC(=S)Nc2ccc(NC(=O)c3cccc(C(=O)O)c3)cc2)cc1Cl [Example 209, N-{4-[3-(5-Chloro-2,4-dimethoxy-phenyl)-thioureido]-phenyl}-isophthalamic acid] | 22% | > 10 µg/mL | > 50 µg/mL | > 50 µg/mL |  | 
18 | COc1cc(OC)c(NC(=S)Nc2ccc(NC(=O)c3cccc(OCc4ccccc4)c3)cc2)cc1Cl [Example 210, 3-Benzyloxy-N-{4-[3-(5-chloro-2,4-dimethoxy-phenyl)-thioureido]-phenyl}-benzamide] | 14% | > 10 µg/mL | > 10 µg/mL | 5 µg/mL (≈ 9.12 µM) |  | 
19 | CCCCOc1cccc(C(=O)Nc2ccc(NC(=S)Nc3cc(Cl)c(OC)cc3OC)cc2)c1 [Example 219, 3-Butoxy-N-{4-[3-(5-chloro-2,4-dimethoxy-phenyl)-thioureido]-phenyl}-benzamide] | 30% | > 10 µg/mL | > 10 µg/mL | 2.5 µg/mL (≈ 4.86 µM) |  | 
20 | COc1cc(OC)c(NC(=S)Nc2ccc(NC(=O)c3ccccc3[S+](C)[O-])cc2)cc1Cl (stereo not drawn) [Example 220, N-{4-[3-(5-Chloro-2,4-dimethoxy-phenyl)-thioureido]-phenyl}-2-methane-sulfinyl-benzamide] | 35% |  | > 10 µg/mL |  | > 10 µg/mL | > 10 µg/mL
21 | CCOC(=O)COc1cccc(C(=O)Nc2ccc(NC(=S)Nc3cc(Cl)c(OC)cc3OC)cc2)c1 [Example 221, (3-{4-[3-(5-Chloro-2,4-dimethoxy-phenyl)-thioureido]-phenylcarbamoyl}-phenoxy)-acetic acid ethyl ester] | 17% | > 10 µg/mL | > 10 µg/mL | > 10 µg/mL |  | 
22 | COc1cc(OC)c(NC(=S)Nc2ccc(NC(=O)c3cccc(OCC(=O)O)c3)cc2)cc1Cl [Example 222, (3-{4-[3-(5-Chloro-2,4-dimethoxy-phenyl)-thioureido]-phenylcarbamoyl}-phenoxy)-acetic acid] | 17% | > 10 µg/mL | > 50 µg/mL | > 50 µg/mL |  | 
23 | Cc1ccc(NC(=S)Nc2ccc(NC(=O)c3ccccc3F)cc2)cc1Cl [Example 231, N-{4-[3-(3-Chloro-4-methyl-phenyl)-thioureido]-phenyl}-2-fluoro-benzamide] | 11% | > 10 µg/mL | > 10 µg/mL | 0.5 µg/mL (≈ 1.21 µM) |  | 
24 | COc1cccc(C(=O)Nc2ccc(NC(=S)Nc3ccc(C)c(Cl)c3)cc2)c1 [Example 232, N-{4-[3-(3-Chloro-4-methyl-phenyl)-thioureido]-phenyl}-3-methoxy-benzamide] | 21% | > 10 µg/mL | > 10 µg/mL | 1 µg/mL (≈ 2.35 µM) |  | 
25 | Cc1ccc(NC(=S)Nc2ccc(NC(=O)c3ccccc3C)cc2)cc1Cl [Example 234, N-{4-[3-(3-Chloro-4-methyl-phenyl)-thioureido]-phenyl}-2-methyl-benzamide] | 68% | > 10 µg/mL | 1 µg/mL (≈ 2.44 µM) | 0.2 µg/mL (≈ 0.488 µM) |  | 
